Reference: patent US6716858B1, “Methods for inhibiting diabetic complications” (Kansas University Medical Center, priority 1995, dated 2004)

Tested on: streptozotocin-induced diabetic rat
Assay: STZ diabetic rat model, AGEs and crosslinking of collagen
Assay type: in vivo
Conditions: for CML, CEL or pentosidine content of kidney collagen / gain in kidney weight / FL in skin collagen, below untreated diabetic animals / decrease of CML, CEL and fluorescence content of skin collagen toward non-diabetic levels / reduction of half-time for digestion of collagen toward normal / body weight / CML concentration in skin collagen / half-time for pepsin digestion of skin collagen / CEL in renal basement membrane collagen / CML in renal basement membrane collagen / Pentosidine in renal basement membrane collagen: diabetic rats; for FL in skin collagen, below untreated diabetic animals: 1 g/L in drinking water, week 28; for decrease of CML, CEL and fluorescence content of skin collagen toward non-diabetic levels / reduction of half-time for digestion of collagen toward normal: 7 months of diabetes; for body weight: 28 weeks; for CML concentration in skin collagen: drug in drinking water, end of study, untreated diabetic 0.124±0.01, non-diabetic 0.057±0.01; for half-time for pepsin digestion of skin collagen: control 90, untreated diabetic 450; for CEL in renal basement membrane collagen: untreated diabetic 0.08 ±0.01; for CML in renal basement membrane collagen: untreated diabetic 0.25 ± 0.04; for Pentosidine in renal basement membrane collagen: untreated diabetic 3.17 ± 1.10; for decrease in collagen-linked fluorescence toward values in non-diabetic rats: skin collagen
Experimental: Animal studies. Diabetes was induced by a single tail vein injection of 45 mg/kg of STZ in 0.1 M sodium citrate buffer, pH 4.5. Control animals were sham injected with buffer only. Diabetes was confirmed by measuring blood glucose levels at 2 and 3 days after the STZ-injection. Animals with plasma glucose higher than 16 mM were classified as diabetic. The diabetic rats were divided randomly into an untreated diabetic group (n=12) and two diabetic treatment groups, receiving either PM (n=13) or AG (n=12) at 1 g/L in drinking water. Two non-diabetic control groups were included, one receiving no treatment (n=13), the other receiving PM(HCl)2 at 2 g/L in drinking water (n=12); the higher dose of PM in the PM-treated control group was designed to compensate, in part, for the lower water intake of non-diabetic, compared to diabetic animals. All animals were housed individually with a light dark cycle of 12 hours each, and had free access to food and water. To maintain body weight and to limit hyperglycemia, diabetic animals received 3 IU of ultralente insulin (Humulin U, Eli Lilly) three times per week; this was increased to 5 IU after week 15 to adjust for the increase in body weight.
Glycemic control. Glycemia was monitored by measurement of plasma glucose and glycated hemoglobin every four weeks, using a Sigma Trinder assay Kit (Sigma # 315). Blood (non-fasting) was obtained from the tail vein, using heparinized microhematocrit tubes, followed by sedimentation of red blood cells (RBC) in a bench-top microhematocrit centrifuge. A sample of plasma (5 μL) or glucose standard was mixed with 300 μL of reagent in a 96-well microtiter plate. The plate was shaken for 18 min and the absorbance at 490 nm was measured in a Wallac Victor 1420 multilabel counter (Wallac Inc. Gaithersburg, Md.). Glycated hemoglobin (GlcHb) was measured on whole blood by boronate affinity chromatography using a Sigma kit for total glycated hemoglobin (Sigma # 442-B).
Necropsy and tissue sampling. Rats were treated according to the guidelines of the Institutional Animal Care and Use Committee of the University of South Carolina. Blood was drawn from anaesthetized (halothane) rats by heart puncture and transferred into heparinized vacutainer tubes on ice; an aliquot was removed for analysis of glycated hemoglobin. Rats were then killed by over-anesthetization, and liver and kidneys were removed, the kidney decapsulated, and both organs rinsed in PBS buffer, and weighed. The right kidney was cut in half transversely, and one half was removed for fixation for electron and light microscopy. The remainder of the right kidney and the whole left kidney were frozen at −70° C. until processed for isolation of collagen. Abdominal skin (2 cm^2) was also removed, rinsed in phosphate buffered saline (PBS) and stored at −70° C. Blood was separated into plasma and RBC within 30 minutes by centrifugation in a refrigerated benchtop centrifuge. RBCs were lysed in an equal volume of deionized water, and plasma and RBC lysates were stored at −70° C.
Isolation and analysis of collagen. The insoluble fraction of skin collagen was prepared by scraping the skin with a single-edged razor blade to remove hair and adventitious tissue, followed by a series of extractions with 0.5 M NaCl, 0.5 M acetic acid and chloroform/methanol (2:1 v/v), as described previously (Dyer, et al. 1993. J. Clin. Invest. 91:2463-2469). Total renal collagen was prepared from ˜1.5 kidneys by an adaptation of the procedure of Fox et al. (J. Biol. Chem. 256:9313-9315 (1981)). Briefly, kidneys were minced and homogenized with a hand-held glass homogenizer in 10 mL of ice-cold water, containing 1 mM EDTA and 0.05% sodium azide. Remaining intact cells and subcellular organelles were then lysed by addition of another 15 mL of water, followed by incubation for 1 hour at 4° C., then centrifugation of the lysate for 30 minutes at 10,000 rpm at 4° C. in a Beckman (Palo Alto, Calif.) J-21 centrifuge. […]

With `N=C(N)NN` [aminoguanidine, reference compound] the “CML, CEL or pentosidine content of kidney collagen” value was “not a significant decrease”, the “gain in kidney weight” value was “partially inhibit the gain in kidney weight” and the “FL in skin collagen, below untreated diabetic animals” value was ~12%. For the same molecule, the “decrease of CML, CEL and fluorescence content of skin collagen toward non-diabetic levels” value was ~50%, the “reduction of half-time for digestion of collagen toward normal” value was ~25% and the body weight was “weighed slightly less than the untreated diabetic group”. The “CML concentration in skin collagen” value was 0.10±0.02 mmol/mol lysine, the “half-time for pepsin digestion of skin collagen” value was 300 min and the “CEL in renal basement membrane collagen” value was 0.07 ± 0.008^C mmol/mol Lys. For the same molecule, the “CML in renal basement membrane collagen” value was 0.24 ± 0.05 mmol/mol Lys, the “Pentosidine in renal basement membrane collagen” value was 2.47 ± 0.64^D μmol/mol Lys and the “decrease in collagen-linked fluorescence toward values in non-diabetic rats” value was ~40%.

For `Cc1ncc(CO)c(CN)c1O` [pyridoxamine], the “CML, CEL or pentosidine content of kidney collagen” value was “not a significant decrease”, the “gain in kidney weight” value was “partially inhibit the gain in kidney weight” and the “FL in skin collagen, below untreated diabetic animals” value was ~12%. For the same molecule, the “decrease of CML, CEL and fluorescence content of skin collagen toward non-diabetic levels” value was ~50%, the “reduction of half-time for digestion of collagen toward normal” value was ~25% and the body weight was “weighed slightly less than the untreated diabetic group”. The “CML concentration in skin collagen” value was 0.092±0.02 mmol/mol lysine, the “half-time for pepsin digestion of skin collagen” value was 350 min and the “CEL in renal basement membrane collagen” value was 0.08 ± 0.008 mmol/mol Lys. For the same molecule, the “CML in renal basement membrane collagen” value was 0.23 ±0.03 mmol/mol Lys, the “Pentosidine in renal basement membrane collagen” value was 3.00 ± 0.90 μmol/mol Lys and the “decrease in collagen-linked fluorescence toward values in non-diabetic rats” value was ~40%.
